According to patent publication US8940291B2 (priority 2009, dated 2015):

System: VSVΔ51-resistant CT26 colon carcinoma tumors
Parameters: species or system Balb/c mice
Settings: mouse, in vivo, ip

## O=C1OC(c2ccccc2)C(Cl)=C1Cl (centres unmarked) [VSe1, 3,4-dichloro-5-phenyl-2,5-dihydrofuran-2-one]
  tumor growth, compound alone: neither VSe1 nor VSVΔ51 alone had a significant effect on tumor growth
  tumor progression, combination with VSVΔ51: significant delay in tumor progression
